Results on 1 molecule are retold here after patent publication US10426772B2, “Use of ergot alkaloids as an anthelmintic agent” (priority 2016, dated 2019).

This experiment relates to S. mansoni. As to the kind of experiment: Curative efficacy against schistosome infection in mice. It counts as in vivo, Schistosoma mansoni. As to the method:
Assays testing the curative efficacy of compounds against schistosome infection were performed on mice 6 weeks after exposure to cerceria. Drugs were dosed as follows. Ergotamine (95 mg/kg) was solubilized in 50 μL DMSO and diluted in 200 μL trappsol-saline and delivered by intraperitoneal injection twice a day for one week. Praziquantel (50 mg/kg) was similarly solubilized and injected intraperitoneally once a day for one week. The negative control cohort was given twice daily injections of DMSO (50 μL) added to 200 μL trappsol-saline solution. Mice were weighed and euthanized at 49 days post infection. Worms were harvested and counted as in the hepatic shift assay. Spleen and livers were weighed, and a segment of intestine was excised from the most distal region of the rectum to 10 cm above the cecum. The small and large intestines were separated by cutting immediately above and below the cecum. Each was cut lengthwise to expose the lumen and thoroughly washed in NaCl (1.2%) to remove excrement. Intestines were laid flat with the intestinal mucosa facing upwards and clamped between two glass plates to allow visual inspection of eggs using a stereo microscope.
Mice were injected with vehicle control (dmso), the current frontline anthelmintic (praziquantel) or ergotamine twice daily for one week at starting 42 days post infection.
All animals were sacrificed 49 days post infection, and worms were harvested by dissection of the mesenteric vasculature, portal vein and liver. […] Schistosomes lay large numbers of eggs within the host mesenteric system, and these progress through stages of development over approximately 5 days which can be scored looking at samples of the intestinal mucosa (Pellegrino et al., 1965). Therefore, it is possible to visually determine whether drug treatment has arrested parasite egg laying by observing a lack of developing eggs. Sections of both the large and small intestines were examined and eggs were manually counted and scored according to developmental stage (representative stages of embryo development shown in FIG. 20H-I, top).

Where [1] appears, read: infected mice, ergotamine 95 mg/kg i.p. twice a day, one week.

For `CN1C[C@H](C(=O)N[C@]2(C)O[C@@]3(O)[C@@H]4CCCN4C(=O)[C@H](Cc4ccccc4)N3C2=O)C=C2c3cccc4[nH]cc(c34)C[C@H]21` [ergotamine], under setting [1], the “increase of liver relative to uninfected littermates” value is listed as 15±34% and the “increase of spleen relative to uninfected littermates” value is 151±80%. Also, the “reduction of worm burden relative to controls” value (mice, ergotamine 95 mg/kg i.p. twice a day for one week from 42 days post infection, sacrificed day 49) is listed as 65±10%. For the setting “mice, ergotamine 95 mg/kg twice a day, praziquantel 50 mg/kg once a day, i.p., one week, versus vehicle control”, the “decrease in intestinal egg counts” value is given as 96%.
